Data reported in PMC3731320, “Identification of Benzimidazole Diamides as Selective Inhibitors of the Nucleotide-Binding Oligomerization Domain 2 (NOD2) Signaling Pathway” (PLoS ONE, 2013).
“Also recorded” adds a separate entry of the source.

How the values were obtained:
NOD2 [1] = assay: MDP-stimulated cytokine release in primary human monocytes; format: cell-based; conditions: MDP 0.1 μg/mL
Protocol: (§1) […] The concentration of IL-1β, IL-6 and TNFα in medium samples collected after 24-hour treatment was determined using the MS6000 human pro-inflammatory-4 II tissue culture kit (Meso Scale Discovery). The IL-8 concentration was determined by HTRF.

TLR2 [2] = assay: Pam2CSK4-stimulated IL-8 release in primary human monocytes; format: cell-based; conditions: Pam2CSK4 100 pg/mL; GSK717 0.5–16 μM, RIP2 inhibitor 0.05–1.6 μM
NOD2 and TLR2 = assay: IL-8 release in primary human monocytes co-stimulated with MDP and Pam2CSK4 (NOD2-TLR2 synergy); format: cell-based; conditions: MDP 0.1 μg/mL + Pam2CSK4 100 pg/mL; listed as GSK717
Protocol: as §1

NOD2 [3] = assay: MDP-stimulated IL-8 release in 293/hNOD2 cells (HTRF); format: cell-based, human; conditions: Homo sapiens
Protocol: (§2) After 24 hours the amount of IL-8 secreted into the medium was determined by homogeneous time resolved fluorescence (HTRF) assay by the direct addition of a 1:1 mix of europium cryptate and XL665-conjugated anti-IL-8 antibodies according to the manufacturer's instructions (Cisbio).

NOD1 [4] = assay: iE-DAP-stimulated IL-8 release in 293/hNOD1 cells (HTRF); format: cell-based, human; conditions: Homo sapiens; IL-8 end-point; 60 ng/mL iE-DAP; read-out: IC50 293/hNOD1 iE-DAP
Protocol: as §2

NOD1 [5] = assay: Tri-DAP-stimulated IL-8 release in HCT116 cells (endogenous NOD1); format: cell-based, human
Protocol: (§3) Compound activity on endogenous NOD1 and NOD2 receptors was determined by inhibition of either Tri-DAP or MDP-stimulated IL-8 release, respectively, using HCT116 human colon carcinoma cells. […] The cells were maintained in DMEM high glucose medium supplemented with 25 mM HEPES and 10% FBS. For assay, cells were seeded into 96 well plates (90,000 cells/well) in DMEM containing 1% FBS and pre-incubated with compounds for 1 hour before addition of either 1 μg/mL MDP or 25 μg/mL Tri-DAP. The level of IL-8 released into medium after 24-hour incubation was determined by HTRF assay as described above and fluorescence measured on an Envision model 2102 multilabel plate reader (Perkin Elmer).

NOD2 [6] = assay: MDP-stimulated IL-8 release in HCT116 cells (endogenous NOD2); format: cell-based, human
Protocol: as §3

TNFR1 = assay: TNFα-stimulated (TNFR1-induced) IL-8 release in 293/hNOD2 cells; format: cell-based, human; conditions: Homo sapiens; IL-8 end-point; 20 ng/mL rhTNFα; read-out: IC50 293/hNOD2 TNFα
Protocol: as §2

TLR2 [7] = assay: Pam2CSK4-stimulated IL-8 release in 293/hTLR2 cells; format: cell-based, human; conditions: Homo sapiens; IL-8 end-point; 3–10 ng/mL Pam2CSK4; read-out: IC50 293/hTLR2 Pam2CSK4
Protocol: as §2

[8] = molecular target: T1, full length human FLAG-6His tagged RIP2 (Homo sapiens, UniProt O43353); assay: RIP2 kinase autophosphorylation assay (ADP-Glo); format: biochemical; conditions: autophosphorylation of RIPK2; 10 μM ATP
T1 construct: autophosphorylation of full length human FLAG-6His tagged RIP2; FLAG; 6His; made in house
Protocol: Direct effects of compounds on RIP2 kinase activity was determined by autophosphorylation of full length human FLAG-6His tagged RIP2 expressed and purified from baculovirus. Enzyme was pre-incubated with compounds in assay buffer (50 mM HEPES pH 7.5, 25 mM MgCl2, 0.05%[w/v] CHAPS, 1 mM DTT and 0.05 mg/mL BSA) in 384-well plates, and then incubated with 10μM ATP for 2 hours at room temperature. The amount of ADP generated was measured using the ADP-Glo universal ADP detection assay for kinases (Promega) and luminescence quantified on a ViewLux imager.

NOD2 [9] = assay: Western blot of MAPK phosphorylation and IκBα in MDP-stimulated 293/hNOD2 cells; format: cell-based, human; conditions: GSK669 at 1 and 10 μM
Protocol: Confluent cultures of 293/-hNOD1 and -hNOD2 cells in 24-well plates were serum-starved over-night. The next day, cells were pre-incubated for 1 hour with compound and then stimulated for 1 hour with either 50 μg/mL Tri-DAP or 25 μg/mL MDP, respectively. Whole cell lysates were prepared in 1X cell lysis buffer (Cell Signaling Technology) containing additional inhibitors of aspartic, cysteine and serine proteases and aminopeptidases (protease inhibitor cocktail set III, EMD Biosciences) and inhibitors of multiple phosphatases (phosphatase inhibitor cocktail sets II and III, Sigma-Aldrich). The levels of phosphorylated and total p38, JNK, ERK1/2 and total IκBα were determined by immunoblotting of ∼20 μg protein per sample using the following primary antibodies: phospho-p38 MAPK (12F8, #4631), p38 MAPK (#9212), phospho-JNK (#9251), JNK (#9252) and IκBα (#9242) all purchased from Cell Signaling Technology, and phospho-ERK1/2 (sc-7383) and ERK1/2 (sc-94) antibodies from Santa Cruz Biotechnology.

T1 sequence (O43353 whole entry): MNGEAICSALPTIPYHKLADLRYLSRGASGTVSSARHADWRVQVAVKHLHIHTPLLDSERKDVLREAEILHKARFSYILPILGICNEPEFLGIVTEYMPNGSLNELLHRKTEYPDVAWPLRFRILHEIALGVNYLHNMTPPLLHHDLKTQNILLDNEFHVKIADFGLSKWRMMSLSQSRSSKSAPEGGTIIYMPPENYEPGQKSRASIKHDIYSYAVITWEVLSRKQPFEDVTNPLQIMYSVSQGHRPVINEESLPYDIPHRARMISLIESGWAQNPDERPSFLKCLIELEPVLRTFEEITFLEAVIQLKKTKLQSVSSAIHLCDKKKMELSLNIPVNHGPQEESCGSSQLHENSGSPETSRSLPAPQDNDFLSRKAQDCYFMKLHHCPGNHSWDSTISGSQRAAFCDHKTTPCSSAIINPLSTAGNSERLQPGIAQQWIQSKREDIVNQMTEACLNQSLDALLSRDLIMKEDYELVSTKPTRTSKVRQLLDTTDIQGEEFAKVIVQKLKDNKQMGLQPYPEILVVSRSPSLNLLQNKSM

Compound | effect on MDP-stimulated IL-8 release in monocytes (NOD2 [1]; GSK717 0.5–16 μM, RIP2 inhibitor 0.05–1.6 μM) | effect on MDP-stimulated cytokine secretion, single concentration (NOD2 [1]; primary human monocytes, compound 5 μM, IL-1β, IL-6, IL-8, TNFα, 24 hours) | effect on Pam2CSK4-stimulated IL-8 release in monocytes (TLR2 [2]) | effect on synergistic IL-8 response of co-stimulated monocytes (NOD2 and TLR2) | IC50 (NOD2 [3]; IL-8 end-point, 30 ng/mL MDP, read-out: IC50 293/hNOD2 MDP) | IC50 (NOD2 [3]; MDP-stimulated IL-8 production assay in 293/hNOD2 cells, Figures 4 and 5, read-out: NOD2 IC50) | IC50 (NOD1 [4]) | IC50 (NOD1 [5]; Homo sapiens, HCT-116, IL-8 end-point, 25 μg/mL Tri-DAP) | effect on IL-8 secretion induced by Tri-DAP in HCT116 cells (NOD1 [5]; Tri-DAP 25 μg/mL, 1 hour pre-treatment) | IC50 (NOD2 [6]; Homo sapiens, HCT-116, IL-8 end-point, 1 μg/mL MDP) | effect on IL-8 secretion induced by MDP in HCT116 cells (NOD2 [6]; MDP 1 μg/mL, 1 hour pre-treatment) | IC50 (TNFR1) | IC50 (TLR2 [7]) | IC50 [8] | effect on MDP-induced p-p38, p-JNK and total IκBα (NOD2 [9])
CN(CCc1nc2ccccc2n1CC(=O)Nc1ccc2c(c1)CCC2)C(=O)c1ccccc1 [Compound 29, N-(2-(1-(2-((2,3-dihydro-1H-inden-5-yl)amino)-2-oxoethyl)-1H-benzo[d]imidazol-2-yl)ethyl)-N-methylbenzamide] | prevented | abrogated the stimulatory effect of MDP | but not Pam2CSK4-stimulated IL-8 release | blocks synergy between NOD2 and TLR2; also recorded: abolished the clear synergistic IL-8 response | – | – | – | – | – | – | – | – | – | – | –
CC(C)c1ccc(NC(=O)Cn2c(CCNC(=O)c3ccccc3)nc3ccccc32)cc1 [Compound 2, N-(2-(1-(2-((4-isopropylphenyl)amino)-2-oxoethyl)-1H-benzo[d]imidazol-2-yl)ethyl)benzamide] | – | – | – | – | 5 µM | 4 ± 3.9 µM | > 50 µM | > 50 µM | had no effect | 1.1 ± 0.7 µM | dose-dependently inhibited | > 100 µM | > 100 µM | > 100 µM | more modest inhibitory effects
